Measured values taken from patent US4612330A, “Antiinflammatory method” (Eli Lilly and Company, priority 1985, dated 1986).

Key:
[1] = system: adjuvant-induced arthritis in rats, uninjected hind paw; experiment: Developing adjuvant-induced arthritis test in rats: uninjected hind paw volume; format: in vivo, male Lewis-Wistar rats; settings: 10 mg/kg I.P. × 29 daily doses; difference of areas under the curves of mean uninjected paw volumes, TB controls vs treated
hind paws of rats = experiment: carrageenin-induced edema test; format: in vivo; settings: for inhibition of paw swelling: 50 mg/kg, administered prior to carrageenin, vs contralateral (control) paws; for anti-inflammatory activity (in words): carrageenin-induced edema, rats
Protocol: It has now been discovered that Punaglandin-1 and -2 are useful in the treatment of inflammation and arthritis in mammals. […] A. Winter, Proc. Soc. Exp. Biol. Med., 111, 544 (1962). In this method, inflammation is induced by injecting carrageenin into one of the hind paws of rats. Test compounds were administered prior to the carrageenin injection to determine the percent inhibition of the subsequent inflammation, in comparison with the animals' contralateral (control) paws.

Row | SMILES | % Inhibition of Uninjected Paw Volume Inflammation, Days 16 through 30 [1] | inhibition of paw swelling (hind paws of rats; intraperitoneal) | inhibition of paw swelling (hind paws of rats; subcutaneous) | anti-inflammatory activity (in words) (hind paws of rats)
1 | CC/C=C\C/C=C\CC1(O)C=C(Cl)C(=O)C1C(OC(C)=O)C(OC(C)=O)C(CCCC(=O)OC)OC(C)=O (centres unmarked) [Punaglandin-1, 5,6,7-tris(acetyloxy)-7-(4-chloro-2-hydroxy-2-[2(Z),5(Z)-octadienyl]-5-oxo-3-cyclopenten-1-yl)heptanoic acid, methyl ester] | 56.7% | 79.6% | 62.1% | anti-inflammatory activity
2 | CCCCC/C=C\CC1(O)C=C(Cl)C(=O)C1C(OC(C)=O)C(OC(C)=O)C(CCCC(=O)OC)OC(C)=O (centres unmarked) [Punaglandin-2, 5,6,7-tris(acetyloxy)-7-(4-chloro-2-hydroxy-2-[2-(Z)-octenyl]-5-oxo-3-cyclopenten-1-yl)heptanoic acid, methyl ester] | – | – | – | anti-inflammatory activity
